Experimental data from US7449447B2, “Peptidomimetic NS3-serine protease inhibitors of hepatitis C virus” (priority 2003, dated 2008).
pKi: −log10 of the molar value. Where a SMILES comes first, the peptide text is derived from it. [ ]: non-standard residue; d: D form. The star is where a group is joined. Pro(3R,4S-CMe2) = CC1(C)[C@@H]2[C@@H](C(=O)O)NC[C@@H]21; Abu(4,4-F2) = N[C@@H](CC(F)F)C(=O)O; Phg = N[C@H](C(=O)O)c1ccccc1; Tle = CC(C)(C)[C@H](N)C(=O)O; Boc = CC(C)(C)OC(=O)*; βAla = NCCC(=O)O

Target: T1, HCV NS3/NS4a serine protease (Hepatitis C virus genotype 1b, UniProt P26663)
T1 construct: amino terminus of the NS3 protease domain (amino acids 3-181) with a tetrapeptide linker; made in house; host or cells: E. coli
Test: Spectrophotometric assay for HCV protease inhibitory activity (chromogenic ester substrates)
Assay type: biochemical, hepatitis C virus (strain 1b)
Settings: single chain NS4A21-32-GSGS-NS3 3-181 protease, 30° C., pH 6.5
In short: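 Single-chain NS4A(21-32)-GSGS-NS3(3-181) protease (genotype 1b) from E. coli was used at 1.3 nM in 25 mM MOPS pH 6.5 with 300 mM NaCl, 30 °C and 4% DMSO. Chromogenic ester substrate cleavage was followed as PAP release at 370 nm over 60 min. Ki was derived from vo/vi versus [I] plots assuming competitive inhibition.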

T1 sequence (P26663 1013-1207, looked up, natural form): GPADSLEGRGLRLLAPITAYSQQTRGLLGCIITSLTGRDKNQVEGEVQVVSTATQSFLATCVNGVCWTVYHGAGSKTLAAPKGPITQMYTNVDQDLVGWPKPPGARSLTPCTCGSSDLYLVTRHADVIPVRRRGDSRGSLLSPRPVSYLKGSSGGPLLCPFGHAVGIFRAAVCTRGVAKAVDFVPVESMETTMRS

## CN(C)C(=O)[C@@H](NC(=O)CCNC(=O)[C@H](CC(F)F)NC(=O)[C@@H]1[C@@H]2[C@H](CN1C(=O)[C@@H](NC(=O)OC(C)(C)C)C(C)(C)C)C2(C)C)c1ccccc1 [Example 168] (Boc-[Tle][Pro(3R,4S-CMe2)][Abu(4,4-F2)][βAla][Phg]-NMe2)
Ki Rating, Table 2
  pKi: < 6.30

## COC(=O)c1ccc(CCNC(=O)[C@H](CC(F)F)NC(=O)[C@@H]2[C@@H]3[C@H](CN2C(=O)[C@@H](NC(=O)N[C@H](CN(C)S(C)(=O)=O)C(C)(C)C)C(C)(C)C)C3(C)C)cc1 [Example 103]
Ki, Table 1
  pKi: 7.66

## CN(C[C@@H](NC(=O)N[C@H](C(=O)N1C[C@H]2[C@@H]([C@H]1C(=O)N[C@@H](CC(F)F)C(=O)NC1Cc3ccccc3C1)C2(C)C)C(C)(C)C)C(C)(C)C)S(C)(=O)=O [Example 218]
Ki, Table 3, rating
  pKi: < 6.30

## CN(C[C@@H](NC(=O)N[C@H](C(=O)N1C[C@H]2[C@@H]([C@H]1C(=O)N[C@@H](CC(F)F)C(=O)NCCc1ccc(F)cc1)C2(C)C)C(C)(C)C)C(C)(C)C)S(C)(=O)=O [Example 265]
Ki, Table 3, rating
  pKi: > 7.00

## COc1cccc(CCNC(=O)[C@H](CC(F)F)NC(=O)[C@@H]2[C@@H]3[C@H](CN2C(=O)[C@@H](NC(=O)N[C@H](CN(C)S(C)(=O)=O)C(C)(C)C)C(C)(C)C)C3(C)C)c1 [Example 270]
Ki, Table 3, rating
  pKi: > 7.00

## CC(C)[C@@H](CNS(=O)(=O)c1ccccc1)NC(=O)N[C@H](C(=O)N1C[C@H]2[C@@H]([C@H]1C(=O)N[C@@H](CC(F)F)C(=O)NCCc1ccc(C(=O)O)cc1)C2(C)C)C(C)(C)C [Example 115]
Ki, Table 1
  pKi: 7.05

## CC(C)(C)OC(=O)CCNC(=O)[C@H](CC(F)F)NC(=O)[C@@H]1[C@@H]2[C@H](CN1C(=O)[C@@H](NC(=O)OC(C)(C)C)C(C)(C)C)C2(C)C [Example 162]
Ki Rating, Table 2
  pKi: < 6.30
